The values that follow come from article PMC12226049, “Imlunestrant a next-generation oral SERD overcomes ESR1 mutant resistance in estrogen receptor–positive breast cancer” (JCI Insight, 2025).

The experiment has as its target T1, Estrogen receptor α (ER) (Homo sapiens, UniProt P03372, Y537S).
T1 construct: gene ESR1; HA-tagged ER mutant, doxycycline-inducible in MCF7
T1 sequence (P03372 1-595 Y537S): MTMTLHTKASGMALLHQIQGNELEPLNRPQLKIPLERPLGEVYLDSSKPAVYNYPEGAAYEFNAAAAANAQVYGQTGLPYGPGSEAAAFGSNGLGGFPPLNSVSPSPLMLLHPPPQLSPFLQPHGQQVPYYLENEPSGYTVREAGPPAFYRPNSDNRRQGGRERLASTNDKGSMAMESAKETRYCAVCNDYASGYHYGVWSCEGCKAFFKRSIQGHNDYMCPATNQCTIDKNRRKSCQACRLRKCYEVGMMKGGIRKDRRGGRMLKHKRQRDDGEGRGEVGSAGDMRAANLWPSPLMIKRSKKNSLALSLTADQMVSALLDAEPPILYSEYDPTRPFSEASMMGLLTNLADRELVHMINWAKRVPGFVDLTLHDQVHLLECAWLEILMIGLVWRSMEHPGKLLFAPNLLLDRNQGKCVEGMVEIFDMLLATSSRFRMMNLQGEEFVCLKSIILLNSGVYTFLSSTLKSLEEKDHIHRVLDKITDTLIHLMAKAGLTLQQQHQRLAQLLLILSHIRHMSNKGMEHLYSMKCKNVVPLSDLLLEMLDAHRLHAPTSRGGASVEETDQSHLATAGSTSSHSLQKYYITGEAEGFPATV
Put plainly: degradation of HA-tagged ER-Y537S by western blot in MCF7 cells ([…]). The class given is cell-based.

For `Oc1ccc2c3c(cnc2c1)-c1ccc(C(F)(F)F)cc1O[C@@H]3c1ccc(OCCN2CC(CF)C2)cc1` [IML, imlunestrant], the “degradation of HA-tagged ER-Y537S by western blot in MCF7 cells (100 nM)” value is listed as “mutant-ER protein degradation was superior with imlunestrant treatment versus fulvestrant”.
